Molecules are shown by their SMILES.

The term Ki denotes a measure of affinity in units of concentration, obtained from inhibition or displacement. As a reminder, the IC50 is the concentration that gives 50% inhibition. The low end stands for higher potency, the high end for lower potency.

The nature of the first assay: Inhibition of I-apamin-sensitive SKCa channel of guinea-pig hepatocytes; 0.14+/-0.01. The assay is classed as cell-based, Cavia porcellus. Particulars: hepatocyte.
The compound `c1ccc2c(c1)c1cc[n+]2CCCCC[n+]2ccc(c3ccccc32)NCCCCCN1` returned an inhibitory constant (Ki) of 0.00014 µM.

A further assay in a line: Inhibition of apamin-sensitive SKCa channel of guinea-pig hepatocytes. The assay is classed as cell-based, Cavia porcellus. Particulars: hepatocyte.
`COc1ccc(CC2c3cc(OC)c(OC)cc3CC[N+]2(C)CCC(=O)OCCCCCOC(=O)CC[N+]2(C)CCc3cc(OC)c(OC)cc3C2Cc2ccc(OC)c(OC)c2)cc1OC` (stereo not given): the IC50 worked out at 3 µM.

In turn, `COc1cc2c3cc1Oc1cc(ccc1O)C[C@@H]1c4c(cc(OC)c(O)c4Oc4ccc(cc4)C[C@@H]3N(C)CC2)CC[N+]1(C)C` gave an IC50 of 3 µM.

With `C=CC1CN2CCC1CC2[C@H](O)c1ccnc2ccccc12` (stereo not given in full), the IC50 turned out to be 420 µM.

`Nc1c2ccccc2nc2ccccc12` [AMINACRINE]: the IC50 came to 120 µM.

For the compound `C=C[C@H]1CN2CC[C@H]1C[C@@H]2[C@@H](O)c1ccnc2ccccc12` [CINCHONINE], 370 µM corresponded to half-maximal inhibition (IC50).

`C[N+](C)(C)CCCCCCCCCC[N+](C)(C)C` [DECAMETHONIUM] yielded an IC50 of 450 µM.

Take `Cc1cc(N)c2ccccc2[n+]1CCCCCCCCCC[n+]1c(C)cc(N)c2ccccc21` [DEQUALINIUM CHLORIDE]: half-maximal inhibition (IC50) was put at 1.7 µM.

Take `CCCCOc1cc(C(=O)NCCN(CC)CC)c2ccccc2n1` [DIBUCAINE]: half-maximal inhibition (IC50) was put at 470 µM.

`CC[N+](CC)(CC)CCOc1cccc(OCC[N+](CC)(CC)CC)c1OCC[N+](CC)(CC)CC` [GALLAMINE]: the IC50 came to 12 µM.

Take `C[N+](C)(C)CCCCCC[N+](C)(C)C` [HEXAMETHONIUM CHLORIDE]: the 50% inhibitory concentration (IC50) is 2000 µM.

`CC(=O)O[C@H]1C[C@@H]2CC[C@@H]3[C@H](CC[C@@]4(C)[C@H]3C[C@H]([N+]3(C)CCCCC3)[C@@H]4OC(C)=O)[C@@]2(C)C[C@@H]1[N+]1(C)CCCCC1` [PANCURONIUM] had an IC50 of 3.5 µM.

`COc1cc(NC(C)CCCN)c2ncccc2c1` (stereo not given) [PRIMAQUINE] registered an IC50 of 970 µM.

As to `CCN(CC)CCCC(C)Nc1c2ccc(Cl)cc2nc2ccc(OC)cc12` (stereo not given) [QUINACRINE], the IC50 was found to be 73 µM.

Compound `C=C[C@H]1CN2CC[C@H]1C[C@@H]2[C@@H](O)c1ccnc2ccc(OC)cc12` [QUINIDINE] had a half-maximal inhibitory concentration (IC50) of 240 µM.

`C=C[C@H]1CN2CC[C@H]1C[C@H]2[C@H](O)c1ccnc2ccc(OC)cc12` [QUININE] registered an IC50 of 150 µM.

Regarding `O=C1C[C@@H]2OCC=C3CN4CC[C@]56c7ccccc7N1[C@H]5[C@H]2[C@H]3C[C@H]46` [STRYCHNINE], it took 190 µM to reach half-maximal inhibition (IC50).

`CC[N+](CC)(CC)CC` [TETRYLAMMONIUM]: the IC50 was determined as 7900 µM.

Turning to `c1ccc2c(c1)c1cc[n+]2Cc2ccc(cc2)Cc2ccc(cc2)C[n+]2ccc(c3ccccc32)NCCCCCCCCCCN1` [UCL-1530], the IC50 is 2.6 µM.

Regarding `CC(=O)O[C@H]1C[C@@H]2CC[C@@H]3[C@H](CC[C@@]4(C)[C@H]3C[C@H]([N+]3(C)CCCCC3)[C@@H]4OC(C)=O)[C@@]2(C)C[C@@H]1N1CCCCC1` [VECURONIUM], the 50% inhibitory concentration (IC50) stood at 4.5 µM.

Source of the values: ChEMBL document CHEMBL1137133, “Defining determinant molecular properties for the blockade of the apamin-sensitive SKCa channel in guinea-pig hepatocytes: the influence of polarizability and molecular geometry” (Bioorg Med Chem Lett, 2004).
